Laboratory results from patent US20230265151A1, “GIP/GLP1 CO-AGONIST COMPOUNDS” (priority 2020, published 2023).
Read-outs that look alike come from different tables or passages of the source. *1 amine or outer side, *2 acyl side, *3 side chain or, on linkers, in order; H or OH if unused. Where a SMILES comes first, the peptide text is derived from it. Side-chain parts run from the residue outwards. [ ]: non-standard residue; d: D form. The star is where a group is joined. Decanoyl(10-(4-HOOC-PhO)) = O=C(O)c1ccc(OCCCCCCCCCC(=O)*)cc1; αMePhe(2-F) = C[C@](N)(Cc1ccccc1F)C(=O)O; γGlu = O=C(O)[C@H](CCC(=O)[*:2])N[*:1]; αMeY = C[C@](N)(Cc1ccc(O)cc1)C(=O)O; αMeL = CC(C)C[C@](C)(N)C(=O)O; Orn = NCCC[C@H](N)C(=O)O; AEEA = NCCOCCOCC(=O)O; Aib = CC(C)(N)C(=O)O

Key:
Format in all cases: cell-based
hGIPR = biological target: T1, hGIPR (Homo sapiens, UniProt P48546); assay: Functional cAMP formation (HTRF) in HEK-293 clonal cells expressing hGIPR, 0.1% bovine casein, without or with 1.0% human serum albumin; conditions: for Emax: percent of maximal response to GIP(1-42)NH2
T1 construct: expressed in transfected cells
T1 sequence (P48546 22-466): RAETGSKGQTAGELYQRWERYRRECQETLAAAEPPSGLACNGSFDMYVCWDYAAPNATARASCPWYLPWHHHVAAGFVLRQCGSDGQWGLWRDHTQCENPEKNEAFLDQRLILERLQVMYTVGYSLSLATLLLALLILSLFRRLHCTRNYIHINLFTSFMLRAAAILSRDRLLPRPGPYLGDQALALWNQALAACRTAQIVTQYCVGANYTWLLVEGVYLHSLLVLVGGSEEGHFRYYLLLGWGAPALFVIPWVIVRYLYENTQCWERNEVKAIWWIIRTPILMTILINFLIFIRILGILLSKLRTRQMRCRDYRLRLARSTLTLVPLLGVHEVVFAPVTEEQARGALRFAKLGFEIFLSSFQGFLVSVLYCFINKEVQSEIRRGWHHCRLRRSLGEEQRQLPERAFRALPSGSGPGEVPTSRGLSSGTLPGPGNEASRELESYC
Procedure, shortened: (§1)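 Readings of the HTRF 665/620 nm ratio, which falls as cAMP rises, were converted to nM cAMP using a standard curve after 30 min peptide exposure at 37° C.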

hGLP-1R = hGLP-1R (Homo sapiens, UniProt P43220); assay: Functional cAMP formation (HTRF) in HEK-293 clonal cells expressing hGLP-1R, 0.1% bovine casein, without or with 1.0% human serum albumin; set-up: expressed in transfected cells
Procedure, shortened: as §1

hGCGR = biological target: T2, hGCGR (Homo sapiens, UniProt P47871); assay: Functional cAMP formation (HTRF) in HEK-293 clonal cells expressing hGCGR, 0.1% bovine casein, without or with 1.0% human serum albumin; conditions: hGCGR EC50, nM (SEM, n), cAMP, 37° C.
T2 construct: expressed in transfected cells
Procedure, shortened: as §1

Sequence of hGLP-1R (P43220 24-463): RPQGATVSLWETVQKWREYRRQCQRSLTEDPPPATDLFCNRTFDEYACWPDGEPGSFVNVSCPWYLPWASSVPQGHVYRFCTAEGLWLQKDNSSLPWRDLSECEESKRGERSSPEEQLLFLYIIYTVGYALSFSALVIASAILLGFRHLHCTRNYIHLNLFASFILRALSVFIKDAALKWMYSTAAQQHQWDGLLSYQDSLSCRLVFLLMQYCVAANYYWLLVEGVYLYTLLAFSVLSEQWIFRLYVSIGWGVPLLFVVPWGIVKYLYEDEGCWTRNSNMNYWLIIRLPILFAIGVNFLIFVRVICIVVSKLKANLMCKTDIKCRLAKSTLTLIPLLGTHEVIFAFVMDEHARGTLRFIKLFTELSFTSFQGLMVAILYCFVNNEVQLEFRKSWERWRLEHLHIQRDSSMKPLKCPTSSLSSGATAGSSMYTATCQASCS
T2 sequence (P47871 26-477): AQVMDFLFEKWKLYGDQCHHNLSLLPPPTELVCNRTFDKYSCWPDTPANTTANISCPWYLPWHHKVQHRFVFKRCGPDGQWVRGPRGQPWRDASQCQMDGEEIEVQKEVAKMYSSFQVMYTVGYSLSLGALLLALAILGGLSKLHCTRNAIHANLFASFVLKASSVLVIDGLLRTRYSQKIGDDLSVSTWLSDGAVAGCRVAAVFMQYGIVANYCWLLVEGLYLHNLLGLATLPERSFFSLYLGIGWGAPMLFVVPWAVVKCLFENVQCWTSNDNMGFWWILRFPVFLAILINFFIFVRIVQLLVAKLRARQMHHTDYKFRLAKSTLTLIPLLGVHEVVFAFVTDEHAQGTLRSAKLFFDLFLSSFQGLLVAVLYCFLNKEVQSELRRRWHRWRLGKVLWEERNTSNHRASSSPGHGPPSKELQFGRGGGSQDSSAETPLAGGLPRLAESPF

Structure (SMILES): CC[C@H](C)[C@H](NC(=O)[C@H](CC(C)C)NC(=O)[C@](C)(Cc1ccc(O)cc1)NC(=O)[C@@H](CCC(=O)O)NC(=O)[C@@H](NC(=O)[C@H](Cc1ccccc1)NC(=O)[C@H](CCCN)NC(=O)C(C)(C)NC(=O)[C@H](CCC(N)=O)NC(=O)[C@H](C)NC(=O)[C@H](CCCCNC(=O)COCCOCCNC(=O)COCCOCCNC(=O)CC[C@H](NC(=O)CCCCCCCCCOc1ccc(C(=O)O)cc1)C(=O)O)NC(=O)[C@H](CCCN)NC(=O)[C@H](CC(=O)O)NC(=O)[C@H](CC(C)C)NC(=O)[C@](C)(CC(C)C)NC(=O)[C@@H](NC(=O)C(C)(C)NC(=O)[C@H](Cc1ccc(O)cc1)NC(=O)[C@H](CC(=O)O)NC(=O)[C@H](CO)NC(=O)[C@@H](NC(=O)[C@](C)(Cc1ccccc1F)NC(=O)[C@@H](NC(=O)CNC(=O)[C@H](CCC(=O)O)NC(=O)C(C)(C)NC(=O)[C@@H](N)Cc1ccc(O)cc1)[C@@H](C)O)[C@@H](C)O)[C@@H](C)CC)[C@@H](C)CC)C(=O)N[C@@H](CCCCNC(=O)COCCOCCNC(=O)COCCOCCNC(=O)CC[C@H](NC(=O)CCCCCCCCCOc1ccc(C(=O)O)cc1)C(=O)O)C(=O)NCC(=O)NCC(=O)N1CCC[C@H]1C(=O)N[C@@H](CO)C(=O)N[C@@H](CO)C(=O)NCC(=O)N[C@@H](C)C(=O)N1CCC[C@H]1C(=O)N1CCC[C@H]1C(=O)N1CCC[C@H]1C(=O)N[C@@H](CO)C(N)=O [Example 352] (H-Y[Aib]EGT[αMePhe(2-F)]TSDY[Aib]I[αMeL]LD[Orn]K([AEEA-AEEA-γGlu-Decanoyl(10-(4-HOOC-PhO))])AQ[Aib][Orn]FI[dE][αMeY]LIK([AEEA-AEEA-γGlu-Decanoyl(10-(4-HOOC-PhO))])GGPSSGAPPPS-NH2)
- Emax (hGIPR; HEK293, read-out: hGIPR Emax, % ± SEM, cAMP, 37° C., 0.1% bovine casein and 1.0% human serum albumin): 71.3%
- Emax (hGIPR; HEK293, read-out: hGIPR Emax, % ± SEM, cAMP, 37° C., 0.1% bovine casein, arithmetic mean): 98.3%
- EC50 (hGIPR; hGIPR EC50, nM (SEM, n), cAMP, 37° C., 0.1% bovine casein (no human serum albumin), geometric mean): 0.0106 nM
- Emax (hGLP-1R; HEK293, read-out: hGLP-1R Emax, % ± SEM, cAMP, 37° C., 0.1% bovine casein and 1.0% human serum albumin, percent of maximal response to GLP-1(7-36)NH2): 93.5%
- EC50 (hGLP-1R; hGLP-1R EC50, nM (SEM, n), cAMP, 37° C., 0.1% bovine casein (no human serum albumin), geometric mean): 0.262 nM
- EC50 (hGCGR; 0.1% bovine casein (no human serum albumin), geometric mean): > 9950 nM
- EC50 (hGCGR; 0.1% bovine casein and 1.0% human serum albumin, geometric mean (SEM, n)): > 9950 nM
